Consider 2 molecules from patent US20090215684A1, “Use of BPI Protein for Treatment of Diseases” (BRIDGE BIORESEARCH LIMITED, priority 2005, published 2009).

Where “and” joins values, the source holds several entries; their conditions need not be identical. Equal entries are not always repeated. Marks after values point to notes of the source that are not given here.

Assay [1] relates to subjects with glucose intolerance. Put plainly: Insulin sensitivity by HOMA (Homeostasis model assessment) in the metformin study. The assay is classed as in vivo, human. As to conditions: mean ± SD. Here is the method:
(§1) The clinical study was performed in accordance with the Declaration of Helsinki (revised version of Hong Kong 1989) as well as with the EC Note for guidance “Good clinical practice for studies on medicinal products in the European Community”. It was approved by the local Ethics Committee and the Spanish Health Department (Clinical assay number: 97/337). Thirty-one patients were randomized either to placebo or metformin according to the randomization tablets supply generated by LIPHA using the computer program RANCODE +3.1. A dietician with the aim of assuring a stable weight gave general diabetic dietary advice at the beginning of the study. Two months after the first visit (visit 2) subjects started taking metformin or placebo, one tablet per day (850 mg) for the first week and then two tablets per day (one after breakfast and one after dinner) for the following eleven weeks. Drug compliance was checked by tablet counts and any side effect was recorded at visit 3 (6 weeks after randomization) and at visit 4 (at the end of the study).
To assess glucose tolerance, an OGTT was performed after an overnight fast. Insulin sensitivity was evaluated by HOMA (Homeostasis model assessment) using basal (mean of three samples obtained at 5 minutes interval) glucose and insulin (Bonora E, et al., Diabetes Care, 2000, vol. 23, pp. 57-63). Beta cell function was calculated by CIGMA (Continuous infusion of glucose with model assessment) from achieved C-peptide and glucose values (Hosker J P, et al., Diabetologia 1985, vol. 28, pp. 401-11). CIGMA test consists of a continuous intravenous infusion of 5-mg glucose per kg of ideal body weight.min^−1 using a 10 g.dl^−1 glucose solution with model assessment of glucose, insulin and C-peptide (RIA, Byk-Sangtec Diagnostica, Dietzenbach, Germany) values obtained before (basal value, mean value of three samples obtained at 5 minute intervals) and at the end (achieved value, mean value of samples obtained at 50, 55 and 60 minutes) of the test. […]

The test system is the same in assay [2]. Put plainly: Randomized clinical study of metformin vs placebo in glucose-intolerant patients: anthropometric and fasting variables. The assay is classed as in vivo, human. As to conditions: mean ± SD; for BMI: 9 patients.
Source text: The objective of this study was to evaluate the effects of changing insulin action—after treatment with an insulin sensitizer (metformin)—on circulating BPI in subjects with glucose intolerance.
Patients were recruited from the Diabetes and Endocrinology Unit at Hospital de Girona Dr Josep Trueta. They were offered participation in the study if they were between 30 and 65 years old and fulfilled all the inclusion criteria. Men and women were both included, but women only when surgical sterility was documented or when they were post-menopausal or when a reliable method of contraception was used. The inclusion criteria were as follows: a) body mass index (BMI) between 22 and 35 kg/m^2, b) impaired glucose tolerance by an OGTT performed two months before the beginning of the study or a fasting glucose level between 110 and 140 mg/dl, c) stability of diet and physical exercise within the past two months. All subjects signed a written informed consent.
as §1
Out of 118 pre-selected subjects, 31 patients were randomized for the study (16 to metformin and 15 to placebo). Six patients ([…] and 3 on placebo) discontinued early and two non-compliant patients were excluded (both in metformin group). 21 patients (9 on metformin and 12 on placebo) were finally analyzed.

Assay [3] shares this test system. Kind of assay: Oral glucose tolerance test (OGTT) in the metformin study. The format is in vivo, human. The settings on record: mean ± SD. The procedure:
The clinical study was performed in accordance with the Declaration of Helsinki (revised version of Hong Kong 1989) as well as with the EC Note for guidance “Good clinical practice for studies on medicinal products in the European Community”. It was approved by the local Ethics Committee and the Spanish Health Department (Clinical assay number: 97/337). Thirty-one patients were randomized either to placebo or metformin according to the randomization tablets supply generated by LIPHA using the computer program RANCODE +3.1. A dietician with the aim of assuring a stable weight gave general diabetic dietary advice at the beginning of the study. […] Drug compliance was checked by tablet counts and any side effect was recorded at visit 3 (6 weeks after randomization) and at visit 4 (at the end of the study).
To assess glucose tolerance, an OGTT was performed after an overnight fast. Insulin sensitivity was evaluated by HOMA (Homeostasis model assessment) using basal (mean of three samples obtained at 5 minutes interval) glucose and insulin (Bonora E, et al., Diabetes Care, 2000, vol. 23, pp. 57-63). Beta cell function was calculated by CIGMA (Continuous infusion of glucose with model assessment) from achieved C-peptide and glucose values (Hosker J P, et al., Diabetologia 1985, vol. 28, pp. 401-11). […]

Assay [4] has the same test system. Put plainly: CIGMA (continuous infusion of glucose with model assessment) in the metformin study. The format is in vivo, human. The settings on record: mean ± SD; for Achieved C-peptide / Achieved glucose / Achieved insulin: after intravenous glucose. Here is the method:
as §1
To assess glucose tolerance, an OGTT was performed after an overnight fast. Insulin sensitivity was evaluated by HOMA (Homeostasis model assessment) using basal (mean of three samples obtained at 5 minutes interval) glucose and insulin (Bonora E, et al., Diabetes Care, 2000, vol. 23, pp. 57-63). Beta cell function was calculated by CIGMA (Continuous infusion of glucose with model assessment) from achieved C-peptide and glucose values (Hosker J P, et al., Diabetologia 1985, vol. 28, pp. 401-11). CIGMA test consists of a continuous intravenous infusion of 5-mg glucose per kg of ideal body weight.min^−1 using a 10 g.dl^−1 glucose solution with model assessment of glucose, insulin and C-peptide (RIA, Byk-Sangtec Diagnostica, Dietzenbach, Germany) values obtained before (basal value, mean value of three samples obtained at 5 minute intervals) and at the end (achieved value, mean value of samples obtained at 50, 55 and 60 minutes) of the test. C-peptide detection level was 0.1 ng/ml and had intra- and inter-assay coefficients of variation of 2.6% and 4.4%.

Another assay concerns BPI. Put plainly: Circulating plasma BPI (BPI ELISA) in the metformin study. The format is in vivo, human. Here is the method: BPI ELISA: Plasma EDTA BPI concentrations were measured by a sandwich enzyme-linked immunosorbent assay (Human BPI ELISA kit, HyCult biotechnology b.v.; P B Uden, The Netherlands) according to the manufacturer's instructions. The kit has an assay sensitivity of 250 pg/ml. […] The clinical study was performed in accordance with the Declaration of Helsinki (revised version of Hong Kong 1989) as well as with the EC Note for guidance “Good clinical practice for studies on medicinal products in the European Community”. It was approved by the local Ethics Committee and the Spanish Health Department (Clinical assay number: 97/337). Thirty-one patients were randomized either to placebo or metformin according to the randomization tablets supply generated by LIPHA using the computer program RANCODE +3.1. A dietician with the aim of assuring a stable weight gave general diabetic dietary advice at the beginning of the study. Two months after the first visit (visit 2) subjects started taking metformin or placebo, one tablet per day (850 mg) for the first week and then two tablets per day (one after breakfast and one after dinner) for the following eleven weeks. Drug compliance was checked by tablet counts and any side effect was recorded at visit 3 (6 weeks after randomization) and at visit 4 (at the end of the study).
Background: ELISA stands for enzyme-linked immunosorbent assay.

The subject of a further assay is ob/ob mice. Kind of assay: Effects of administration of BPI on blood glucose concentration in ob/ob mice. The assay is classed as in vivo. Here is the method: The objective of this study was to evaluate the effects of administration of BPI on glucose concentration on ob/ob mice
Obese mice ob/ob were treated for 6 days with a daily intraperitoneal dose of 2.5 ng of human purified BPI per gram of body weight or vehicle (control mice). Before the treatment both groups (control and BPI treated) presented a high glycemia and no differences were identified between both groups (342±33 and 342±38 mg/dl, respectively).

The mark [5] stands for this setting: metformin, 12 weeks, p<0.05 within group.
Where [6] appears, read: metformin, 12 weeks, p<0.05 within group, listed as metformin.

Turning to `CN(C)C(=N)N=C(N)N` [Metformin, metformin], the HOMA sensitivity in assay [1] (metformin group, baseline) was 37.4 ± 15.2%; in assay [1] (setting [5]), 50.4 ± 23.2^b %; in assay [1] (setting [6]), “improved”. Besides, the BMI in assay [2] (metformin 850 mg tablets, two per day, 12 weeks) is recorded as 27.7 ± 4.3 Kg/m^2; in assay [2] (metformin group, baseline (before treatment)) it was 28.0 ± 4.5 Kg/m^2. In addition, the “Fasting C-peptide” value in assay [2] (metformin group, baseline) was 2.5 ± 0.7 ng/mL; in assay [2] (setting [5]), 1.8 ± 0.5^b ng/ml; in assay [2] (setting [6]), “statistically lower”. Also, the Fasting glucose in assay [2] (metformin group, baseline) was 110.1 ± 9.9 mg/dL; in assay [2] (metformin, 12 weeks, p<0.01 within group), 98.9 ± 15.7^a mg/dl; in assay [2] (metformin, 12 weeks, p<0.01 within group, listed as metformin), “decreased”. The Fasting insulin in assay [2] (metformin group, baseline) was 11.6 ± 5.4 mU/l; in assay [2] (setting [5]), 8.8 ± 3.5^b mU/l; in assay [2] (setting [6]) it was “statistically lower”. Besides, the Waist circumference in assay [2] (metformin group, baseline) came out at 95.9 ± 11.5; in assay [2] (metformin, 12 weeks), 94.8 ± 9.4. In addition, the Waist-to-hip ratio in assay [2] (metformin group, baseline) was 0.96 ± 0.1; in assay [2] (metformin, 12 weeks) it was 0.92 ± 0.07. Also, the “120′ OGTT glucose” value was 162.2 ± 27.8 mg/dL in assay [3] (metformin group, baseline) and 140.6 ± 42.9 mg/dL in assay [3] (metformin, 12 weeks). The “Achieved C-peptide” value was 5.2 ± 1.2 ng/mL in assay [4] (metformin group, baseline); 4.2 ± 1.0^b ng/ml in assay [4] (setting [5]); “statistically lower” in assay [4] (setting [6]). For the same molecule, the Achieved glucose in assay [4] (metformin group, baseline) amounted to 190.5 ± 18.9 mg/dL; in assay [4] (metformin, 12 weeks), 174.6 ± 34.5 mg/dL. For the same molecule, the Achieved insulin in assay [4] (metformin group, baseline) came out at 28.5 ± 13.5 mU/l; in assay [4] (metformin, 12 weeks) it was 23.3 ± 7.6 mU/l. The “CIGMA beta cell function” value in assay [4] (metformin group, baseline) is on record as 82.8 ± 24.0%; in assay [4] (metformin, 12 weeks), 90.9 ± 34.0%; in assay [4] (metformin, 12 weeks, listed as metformin), “not modified”. The “BPI (circulating, plasma)” value is 2.75 ng/mL with BPI (metformin group, baseline, median (interquartile range 1.26-7.73)); 7.49 ng/mL with BPI (metformin, 12 weeks, median (interquartile range 2.56-38.8), p = 0.017 within group); “significantly increased” with BPI (metformin, 12 weeks, median (interquartile range 2.56-38.8), p = 0.017 within group, listed as metformin).

B1: BPI: human purified bactericidal/permeability-increasing (BPI) protein, 456 residues, approximately 55 kD (protein, listed as Homo sapiens)
chain: VNPGVVVRISQKGLDYASQQGTAALQKELKRIKIPDYSDSFKIKHLGKGHYSFYSMDIREFQLPSSQISMVPNVGLKFSISNANIKISGKWKAQKRFLKMSGNFDLSIEGMSISADLKLGSNPTSGKPTITASSCSSHINSVHVHISKSKVGWLIQLFHKKIESALRNKMNSQVCEKVTNSVSSKLQPYFQTL
Take B1: the “GLU (blood glucose concentration), Mean” value in the assay on ob/ob mice (BPI treated group, day 0 (before the treatment)) was 342 ± 38 mg/dL and 341.67 mg/dL; in the assay on ob/ob mice (daily intraperitoneal 2.5 ng human purified BPI per gram body weight, 3 days of treatment), 289.00 mg/dL; with ob/ob mice (daily intraperitoneal 2.5 ng human purified BPI per gram body weight, 6 days of treatment), 261 ± 21 mg/dL and 261.80 mg/dL. Further, the Effect on glycemia result in the assay on ob/ob mice (treatment for 3 or 6 days with 2.5 ng/g BPI i.p. daily, vs control) is recorded as “pronounced decrease of glycemia”.
